# Experimental data reported in ChEMBL document CHEMBL5537136 (J Med Chem, 2024).
# The source made the active and inactive calls. No cut-off for these calls is given here.
# Tests used:
# [1] = biological target: Poly [ADP-ribose] polymerase 1 (Homo sapiens, UniProt P09874); test: Inhibition of PARP1 (unknown origin) measured after 1 hr incubation by microplate reader assay
# [2] = biological target: T1, Protein mono-ADP-ribosyltransferase TIPARP (Homo sapiens, UniProt Q7Z3E1); test: Inhibition of PARP7 (unknown origin) measured after 1 hr incubation by microplate reader assay
# T1 sequence (Q7Z3E1 whole entry): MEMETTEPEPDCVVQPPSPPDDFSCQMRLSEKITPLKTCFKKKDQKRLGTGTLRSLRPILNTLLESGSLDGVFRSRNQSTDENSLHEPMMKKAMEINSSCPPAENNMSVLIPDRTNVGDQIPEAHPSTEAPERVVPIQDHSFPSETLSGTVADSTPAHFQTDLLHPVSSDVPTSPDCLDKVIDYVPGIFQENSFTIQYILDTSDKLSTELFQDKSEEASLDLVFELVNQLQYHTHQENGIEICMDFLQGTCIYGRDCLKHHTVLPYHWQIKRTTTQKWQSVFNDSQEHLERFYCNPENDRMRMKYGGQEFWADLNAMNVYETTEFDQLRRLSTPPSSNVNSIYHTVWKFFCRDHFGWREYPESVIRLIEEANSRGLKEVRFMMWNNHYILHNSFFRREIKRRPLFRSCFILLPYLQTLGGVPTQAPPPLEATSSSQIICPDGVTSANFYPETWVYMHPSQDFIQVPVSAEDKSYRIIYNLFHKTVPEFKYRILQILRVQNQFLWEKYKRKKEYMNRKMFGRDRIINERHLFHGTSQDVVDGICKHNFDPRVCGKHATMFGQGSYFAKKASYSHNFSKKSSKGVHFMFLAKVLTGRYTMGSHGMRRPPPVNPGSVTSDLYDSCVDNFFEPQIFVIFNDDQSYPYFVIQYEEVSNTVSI
# [3] = biological target: T2, Protein mono-ADP-ribosyltransferase TIPARP (Homo sapiens) (UniProt Q7Z3E1); test: Inhibition of PARP7 (unknown origin) at 100 nM measured after 1 hr incubation by microplate reader assay relative to control
# T2 sequence (whole entry): T1 sequence (Q7Z3E1 whole entry)
# [4] = tested on: CT26; test: Antitumor activity against mouse CT26 cells implanted in immunodeficient Balb/c mouse assessed as inhibition of tumor growth at 25 mg/kg, ip qod measured after 10 days relative to control; type: functional; conditions: CT26, 240 h, time 10 day, read-out: TGI
# [5] = biological target: CYP3A4/5 (Homo sapiens, UniProt P08684+P20815); test: Inhibition of CYP3A4/5 (unknown origin); type: ADME, protein assay
# [6] = Permeability across apical to basolateral side in human Caco-2 cells; type: ADME, cell-based
# [7] = biological target: Cytochrome P450 2D6 (Homo sapiens, UniProt P10635); test: Inhibition of CYP2D6 (unknown origin); type: ADME
# Cytochrome P450 2D6, sequence (P10635 whole entry): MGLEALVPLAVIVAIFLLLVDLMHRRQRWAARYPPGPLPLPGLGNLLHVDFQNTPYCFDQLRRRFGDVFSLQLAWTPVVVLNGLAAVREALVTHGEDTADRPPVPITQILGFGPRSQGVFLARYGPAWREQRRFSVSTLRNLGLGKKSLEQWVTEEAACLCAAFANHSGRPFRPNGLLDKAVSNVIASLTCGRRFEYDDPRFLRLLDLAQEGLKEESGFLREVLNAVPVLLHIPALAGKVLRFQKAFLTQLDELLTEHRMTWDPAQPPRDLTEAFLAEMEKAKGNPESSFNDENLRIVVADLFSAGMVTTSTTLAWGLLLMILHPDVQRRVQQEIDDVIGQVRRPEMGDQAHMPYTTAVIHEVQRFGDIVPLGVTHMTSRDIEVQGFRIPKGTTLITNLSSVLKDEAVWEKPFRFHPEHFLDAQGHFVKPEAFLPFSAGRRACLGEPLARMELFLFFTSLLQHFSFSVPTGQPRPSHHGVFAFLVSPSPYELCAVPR
# [8] = Permeability across basolateral to apical side in human Caco-2 cells; type: ADME, cell-based
# [9] = tested on: CT26; test: Antitumor activity in immunocompetent mouse CT26 cell bearing mouse model assessed as tumor growth inhibition at 100 mg/kg, IG treated twice a day measured after 14 days relative to control; type: functional; conditions: CT26, po, 336 h, time 14 day, read-out: TGI
# [10] = Oral bioavailability in ICR mouse; type: ADME, organism-based; conditions: in vivo
# [11] = tested on: CT26; test: Antitumor activity in immunocompetent mouse CT26 cell bearing Balb/c mouse model assessed as induction of IFN-beta mRNA expression in tumor tissue at 100 mg/kg, IG treated twice a day measured after 14 days by quantitative real-time PCR analysis; type: functional, organism-based; conditions: time 14.0 day
# [12] = biological target: Cytochrome P450 2C9 (Homo sapiens, UniProt P11712); test: Inhibition of CYP2C9 (unknown origin); type: ADME
# Cytochrome P450 2C9, sequence (P11712 whole entry): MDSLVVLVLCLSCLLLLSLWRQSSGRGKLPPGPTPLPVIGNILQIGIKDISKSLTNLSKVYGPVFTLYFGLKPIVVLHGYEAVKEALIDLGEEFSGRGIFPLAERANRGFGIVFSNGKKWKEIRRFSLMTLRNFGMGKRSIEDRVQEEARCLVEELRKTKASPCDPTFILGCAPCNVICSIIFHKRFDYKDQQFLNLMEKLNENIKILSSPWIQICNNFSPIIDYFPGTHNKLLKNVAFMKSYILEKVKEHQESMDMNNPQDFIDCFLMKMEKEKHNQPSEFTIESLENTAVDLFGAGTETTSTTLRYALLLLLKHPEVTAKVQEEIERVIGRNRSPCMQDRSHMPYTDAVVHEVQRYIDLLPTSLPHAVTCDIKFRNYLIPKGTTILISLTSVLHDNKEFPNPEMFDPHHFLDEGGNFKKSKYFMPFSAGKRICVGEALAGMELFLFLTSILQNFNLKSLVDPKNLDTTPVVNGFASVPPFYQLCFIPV
# [13] = Clearance in ICR mouse; type: ADME; conditions: in vivo
# [14] = Antiproliferative activity against mouse AML12 cells measured after 6 days incubation by MTT assay; type: toxicity, cell-based
# Poly [ADP-ribose] polymerase 1, sequence (P09874 whole entry): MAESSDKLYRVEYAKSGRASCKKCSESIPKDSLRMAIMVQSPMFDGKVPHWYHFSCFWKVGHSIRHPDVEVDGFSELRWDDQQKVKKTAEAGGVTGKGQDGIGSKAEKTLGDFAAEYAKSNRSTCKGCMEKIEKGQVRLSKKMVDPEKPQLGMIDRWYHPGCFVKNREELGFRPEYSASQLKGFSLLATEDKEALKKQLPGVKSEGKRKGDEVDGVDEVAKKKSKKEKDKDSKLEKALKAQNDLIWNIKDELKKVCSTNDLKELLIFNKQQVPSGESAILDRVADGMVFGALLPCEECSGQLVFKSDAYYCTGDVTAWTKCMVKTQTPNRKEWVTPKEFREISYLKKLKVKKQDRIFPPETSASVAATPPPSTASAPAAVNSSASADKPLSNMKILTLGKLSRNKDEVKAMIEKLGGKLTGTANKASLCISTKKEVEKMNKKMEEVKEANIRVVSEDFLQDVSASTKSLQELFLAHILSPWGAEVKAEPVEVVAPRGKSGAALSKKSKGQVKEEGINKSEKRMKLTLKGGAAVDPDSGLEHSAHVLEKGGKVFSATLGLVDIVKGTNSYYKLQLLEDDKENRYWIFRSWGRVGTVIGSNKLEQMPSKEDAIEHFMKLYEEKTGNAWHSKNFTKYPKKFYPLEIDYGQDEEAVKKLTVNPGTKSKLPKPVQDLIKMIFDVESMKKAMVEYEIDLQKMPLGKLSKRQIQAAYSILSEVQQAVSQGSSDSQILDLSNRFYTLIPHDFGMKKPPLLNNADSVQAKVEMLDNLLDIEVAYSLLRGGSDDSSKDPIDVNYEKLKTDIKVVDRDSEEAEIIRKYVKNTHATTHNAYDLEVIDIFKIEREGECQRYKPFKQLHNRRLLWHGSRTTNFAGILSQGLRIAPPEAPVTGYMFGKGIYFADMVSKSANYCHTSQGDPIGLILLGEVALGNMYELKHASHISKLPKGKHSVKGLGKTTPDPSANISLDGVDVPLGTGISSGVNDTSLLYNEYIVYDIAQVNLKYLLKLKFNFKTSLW
compound,measurement,setting,value
NC(=O)c1cccc2cn(CC(=O)N3CCN(c4ncc(C(F)(F)F)cn4)CC3)nc12,IC50,[1],> 1.3 µM
same,IC50,[2],0.046 µM
same,inhibition,[3],89%
CCC(C(=O)N1CCN(c2ncc(C(F)(F)F)cn2)CC1)n1cc2cccc(C(N)=O)c2n1 (stereo not drawn),inhibition,[3],63%
NC(=O)c1cccc2cn(CC(=O)N3CCN(c4ccc(C(F)(F)F)cn4)CC3)nc12,IC50,[1],> 1.3 µM
same,inhibition,[3],68.7%
O=c1[nH]cc(F)c(=O)[nH]1 [FLUOROURACIL],inhibition in vivo at 25 mg/kg,[4],65%
CC(C(=O)N1CCN(c2ccc(C(F)(F)F)cn2)CC1)n1cc2cccc(C(N)=O)c2n1 (stereo not drawn),IC50,[2],0.02 µM
same,inhibition,[3],91.2%
CC(C(=O)N1CCN(c2ncccn2)CC1)n1cc2cccc(C(N)=O)c2n1 (stereo not drawn),inhibition,[3],19.7%
CC(C(=O)N1CCN(c2ncc(S(C)(=O)=O)cn2)CC1)n1cc2cccc(C(N)=O)c2n1 (stereo not drawn),inhibition,[3],25.6%
NC(=O)c1cccc2cn(C(F)C(=O)N3CCN(c4ncc(C(F)(F)F)cn4)CC3)nc12 (stereo not drawn),IC50,[2],0.122 µM
same,inhibition,[3],63%
CC(C(=O)N1CCN(c2ncc(Br)cn2)CC1)n1cc2cccc(C(N)=O)c2n1 (stereo not drawn),IC50,[2],0.0223 µM
same,inhibition,[3],85.6%
CC(C(=O)N1CCN(c2ncc(C#N)cn2)CC1)n1cc2cccc(C(N)=O)c2n1 (stereo not drawn),inhibition,[3],71%
CC(C(=O)N1CCN(c2ccc3c(c2)OC(F)(F)O3)CC1)n1cc2cccc(C(N)=O)c2n1 (stereo not drawn),inhibition,[3],13%
NC(=O)c1cccc2cn(CC(=O)N3CCN(c4ccc5c(c4)OC(F)(F)O5)CC3)nc12,inhibition,[3],17.5%
NC(=O)c1cccc2cn(CCC(=O)N3CCN(c4ncc(C(F)(F)F)cn4)CC3)nc12,inhibition,[3],33.9%
CC(C(=O)N1CCN(c2ncc(F)cn2)CC1)n1cc2cccc(C(N)=O)c2n1 (stereo not drawn),inhibition,[3],64.5%
Cc1cnc(N2CCN(C(=O)C(C)n3cc4cccc(C(N)=O)c4n3)CC2)nc1 (stereo not drawn),IC50,[2],0.062 µM
same,inhibition,[3],79.5%
C[C@@H](COCCC(=O)N1CCN(c2ncc(C(F)(F)F)cn2)CC1)Nc1cn[nH]c(=O)c1C(F)(F)F [ATAMPARIB],IC50,[5],> 30 µM
same,Papp A→B,[6],4.1 ×10⁻⁶ cm/s
same,IC50,[7],> 30 µM
same,Papp B→A,[8],24 ×10⁻⁶ cm/s
same,inhibition in vivo at 100 mg/kg,[9],4%
same,bioavailability,[10],25.7%
same,Activity,[11],inactive
same,IC50,[12],> 30 µM
same,clearance,[13],67 mL/min/kg
same,IC50 at 6 days,[14],> 50 µM
COc1cnc(N2CCN(C(=O)C(C)n3cc4cccc(C(N)=O)c4n3)CC2)nc1 (stereo not drawn),inhibition,[3],65.5%
